Source: patent publication US7138361B2, “Herbicidal heterocycles” (E. I. du Pont de Nemours and Company, priority 2000, dated 2006)

Key:
Test in all cases: Test C preemergence
Type in all cases: in vivo
[1] = system: Sunflower; details: Rate 250 g/ha, scale 0 to 100, 0 no effect, 100 complete control
[2] = system: cocklebur (Xanthium strumarium); details: for Plant response rating, Cocklebur: scale 0 to 100, 0 no effect, 100 complete control; for Plant response rating (0 to 100), Cocklebur: preemergence, visual evaluation after 12 to 14 days
Outline: (§1)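 Herbicidal effect is a visual 0–100 score (100 = complete control) assigned versus untreated plants, 12 to 14 days after spraying in the greenhouse. Test compounds were applied in a non-phytotoxic, surfactant-containing solvent.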

[3] = system: Nightshade; details: scale 0 to 100, 0 no effect, 100 complete control
[4] = system: velvetleaf (Abutilon theophrasti); details: for Plant response rating, Velvetleaf: scale 0 to 100, 0 no effect, 100 complete control
Outline: as §1

[5] = system: giant foxtail (Setaria faberii); details: for Plant response rating, Foxtail, Giant: scale 0 to 100, 0 no effect, 100 complete control; for Plant response rating (0 to 100), Foxtail, Giant: preemergence, visual evaluation after 12 to 14 days
Outline: as §1

[6] = system: corn (Zea mays); details: for Plant response rating, Corn: scale 0 to 100, 0 no effect, 100 complete control; for Plant response rating (0 to 100), Corn: preemergence, visual evaluation after 12 to 14 days
Outline: as §1

[7] = system: bermudagrass (Cynodon dactylon); details: for Plant response rating, Bermudagrass: scale 0 to 100, 0 no effect, 100 complete control; for Plant response rating (0 to 100 where 0 is no effect and 100 is complete control), Bermudagrass: preemergence, visual evaluation after 12 to 14 days
Outline: as §1

[8] = system: Sunflower; details: Rate 125 g/ha; scale 0 to 100, 0 no effect, 100 complete control
[9] = system: goosegrass (Eleusine indica); details: for Plant response rating, Goosegrass: scale 0 to 100, 0 no effect, 100 complete control; for Plant response rating (0 to 100), Goosegrass: preemergence, visual evaluation after 12 to 14 days
Outline: as §1

[10] = system: pigweed (Amaranthus retroflexus); details: for Plant response rating, Pigweed: scale 0 to 100, 0 no effect, 100 complete control
Outline: as §1

[11] = system: morningglory (Ipomoea hederacea); details: for Plant response rating, Morningglory: scale 0 to 100, 0 no effect, 100 complete control
Outline: as §1

[12] = system: woolly cupgrass (Eriochloa villosa); details: for Plant response rating, Cupgrass, Woolly: scale 0 to 100, 0 no effect, 100 complete control; for Plant response rating (0 to 100), Cupgrass, Woolly: preemergence, visual evaluation after 12 to 14 days
Outline: as §1

[13] = system: crabgrass (Digitaria sanguinalis); details: for Plant response rating, Crabgrass: scale 0 to 100, 0 no effect, 100 complete control; for Plant response rating (0 to 100), Crabgrass: preemergence, visual evaluation after 12 to 14 days
Outline: as §1

[14] = system: yellow nutsedge (Cyperus esculentus); details: for Plant response rating, Nutsedge: scale 0 to 100, 0 no effect, 100 complete control
Outline: as §1

[15] = system: johnsongrass (Sorghum halepense); details: for Plant response rating, Johnsongrass: scale 0 to 100, 0 no effect, 100 complete control; for Plant response rating (0 to 100), Johnsongrass: preemergence, visual evaluation after 12 to 14 days
Outline: as §1

[16] = system: Surinam grass (Brachiaria decumbens); details: for Plant response rating, Surinam grass: scale 0 to 100, 0 no effect, 100 complete control; for Plant response rating (0 to 100), Surinam grass: preemergence, visual evaluation after 12 to 14 days
Outline: as §1

[17] = system: soybean (Glycine max); details: for Plant response rating, Soybean: scale 0 to 100, 0 no effect, 100 complete control
Outline: as §1

[18] = system: kochia (Kochia scoparia); details: for Plant response rating, Kochia: scale 0 to 100, 0 no effect, 100 complete control; for Plant response rating (0 to 100), Kochia: preemergence, visual evaluation after 12 to 14 days
Outline: as §1

[19] = system: common ragweed (Ambrosia elatior); details: for Plant response rating, Ragweed, Common: scale 0 to 100, 0 no effect, 100 complete control
Outline: as §1

[20] = system: lambsquarters (Chenopodium album); details: for Plant response rating, Lambsquarters: scale 0 to 100, 0 no effect, 100 complete control
Outline: as §1

[21] = preemergence, Rate 500 g/ha, visual evaluation after 12 to 14 days

In the case of `CC(C)(C)c1ccn(C2CCN(c3cccc(OC(F)F)c3)C2=O)n1` (stereo not drawn) [Compound 76], the “Plant response rating, Sunflower” value [1] is reported as 30, the “Plant response rating, Cocklebur” value ([2]; Rate 62 g/ha) is reported as 0 and the “Plant response rating, Cocklebur” value ([2]; Rate 125 g/ha) is reported as 0. The “Plant response rating (0 to 100), Cocklebur” value ([2]; Rate 250 g/ha) was 20, the “Plant response rating (0 to 100), Cocklebur” value ([2]; Rate 500 g/ha) was 20 and the “Plant response rating, Nightshade” value ([3]; Rate 62 g/ha) was 0. For the same compound, the “Plant response rating, Nightshade” value ([3]; Rate 125 g/ha) was 30, the “Plant response rating, Nightshade” value ([3]; Rate 250 g/ha) was 40 and the “Plant response rating, Velvetleaf” value ([4]; Rate 125 g/ha) was 20. For the same compound, the “Plant response rating (0 to 100), Velvetleaf” value [4, 21] was 50, the “Plant response rating, Velvetleaf” value ([4]; preemergence, Rate 250 g/ha) was 20 and the “Plant response rating, Foxtail, Giant” value ([5]; Rate 62 g/ha) was 100. For the same compound, the “Plant response rating, Foxtail, Giant” value ([5]; Rate 125 g/ha) was 100, the “Plant response rating (0 to 100), Foxtail, Giant” value ([5]; Rate 250 g/ha) was 20 and the “Plant response rating (0 to 100), Foxtail, Giant” value ([5]; Rate 500 g/ha) was 90. The “Plant response rating, Corn” value ([6]; Rate 62 g/ha) was 20, the “Plant response rating, Corn” value ([6]; Rate 125 g/ha) was 20 and the “Plant response rating (0 to 100), Corn” value ([6]; Rate 250 g/ha) was 20. The “Plant response rating (0 to 100), Corn” value ([6]; Rate 500 g/ha) was 80, the “Plant response rating, Bermudagrass” value ([7]; Rate 62 g/ha) was 100 and the “Plant response rating, Bermudagrass” value ([7]; Rate 125 g/ha) was 100. The “Plant response rating (0 to 100 where 0 is no effect and 100 is complete control), Bermudagrass” value ([7]; Rate 250 g/ha) was 100, the “Plant response rating (0 to 100 where 0 is no effect and 100 is complete control), Bermudagrass” value ([7]; Rate 500 g/ha) was 100 and the “Plant response rating, Sunflower” value [8] was 20. For the same compound, the “Plant response rating, Goosegrass” value ([9]; Rate 62 g/ha) was 100, the “Plant response rating, Goosegrass” value ([9]; Rate 125 g/ha) was 100 and the “Plant response rating (0 to 100), Goosegrass” value ([9]; Rate 250 g/ha) was 100. For the same compound, the “Plant response rating (0 to 100), Goosegrass” value ([9]; Rate 500 g/ha) was 100, the “Plant response rating, Pigweed” value ([10]; Rate 125 g/ha) was 100 and the “Plant response rating (0 to 100), Pigweed” value [10, 21] was 100. The “Plant response rating, Pigweed” value ([10]; preemergence, Rate 250 g/ha) was 0, the “Plant response rating, Morningglory” value ([11]; Rate 62 g/ha) was 10 and the “Plant response rating, Morningglory” value ([11]; Rate 125 g/ha) was 30. For the same compound, the “Plant response rating (0 to 100), Morningglory” value [11, 21] was 30, the “Plant response rating, Morningglory” value ([11]; preemergence, Rate 250 g/ha) was 30 and the “Plant response rating, Cupgrass, Woolly” value ([12]; Rate 62 g/ha) was 50. The “Plant response rating, Cupgrass, Woolly” value ([12]; Rate 125 g/ha) was 100, the “Plant response rating (0 to 100), Cupgrass, Woolly” value ([12]; Rate 250 g/ha) was 100 and the “Plant response rating (0 to 100), Cupgrass, Woolly” value ([12]; Rate 500 g/ha) was 100. The “Plant response rating, Crabgrass” value ([13]; Rate 62 g/ha) was 100, the “Plant response rating, Crabgrass” value ([13]; Rate 125 g/ha) was 100 and the “Plant response rating (0 to 100), Crabgrass” value ([13]; Rate 250 g/ha) was 100. The “Plant response rating (0 to 100), Crabgrass” value ([13]; Rate 500 g/ha) was 100, the “Plant response rating, Nutsedge” value ([14]; Rate 62 g/ha) was 0 and the “Plant response rating, Nutsedge” value ([14]; Rate 125 g/ha) was 0. The “Plant response rating (0 to 100), Nutsedge” value [14, 21] was 20, the “Plant response rating, Nutsedge” value ([14]; preemergence, Rate 250 g/ha) was 20 and the “Plant response rating, Johnsongrass” value ([15]; Rate 62 g/ha) was 20. The “Plant response rating, Johnsongrass” value ([15]; Rate 125 g/ha) was 30, the “Plant response rating (0 to 100), Johnsongrass” value ([15]; Rate 250 g/ha) was 40 and the “Plant response rating (0 to 100), Johnsongrass” value ([15]; Rate 500 g/ha) was 100. The “Plant response rating, Surinam grass” value ([16]; Rate 62 g/ha) was 50, the “Plant response rating, Surinam grass” value ([16]; Rate 125 g/ha) was 60 and the “Plant response rating (0 to 100), Surinam grass” value ([16]; Rate 250 g/ha) was 80. The “Plant response rating (0 to 100), Surinam grass” value ([16]; Rate 500 g/ha) was 100, the “Plant response rating, Soybean” value ([17]; Rate 125 g/ha) was 0 and the “Plant response rating (0 to 100), Soybean” value [17, 21] was 0. For the same compound, the “Plant response rating, Soybean” value ([17]; preemergence, Rate 250 g/ha) was 0, the “Plant response rating, Kochia” value ([18]; Rate 62 g/ha) was 100 and the “Plant response rating, Kochia” value ([18]; Rate 125 g/ha) was 100. The “Plant response rating (0 to 100), Kochia” value ([18]; Rate 250 g/ha) was 100, the “Plant response rating (0 to 100), Kochia” value ([18]; Rate 500 g/ha) was 100 and the “Plant response rating, Ragweed, Common” value ([19]; Rate 125 g/ha) was 0. For the same compound, the “Plant response rating (0 to 100), Ragweed, Common” value [19, 21] was 0, the “Plant response rating, Ragweed, Common” value ([19]; preemergence, Rate 250 g/ha) was 0 and the “Plant response rating, Lambsquarters” value ([20]; Rate 62 g/ha) was 100. The “Plant response rating, Lambsquarters” value ([20]; Rate 125 g/ha) was 100, the “Plant response rating (0 to 100), Lambsquarters” value [20, 21] was 100 and the “Plant response rating, Lambsquarters” value ([20]; preemergence, Rate 250 g/ha) was 100.
